Assays:
[1] = target: T1, 5-HT2C receptor, human recombinant (HEK-293 cells) (Homo sapiens, UniProt P28335); test: Binding assay, 5-HT2C receptor ([3H]mesulergine); conditions: for 5-HT2C [%] binding assay result: compound 1×10^−6 M
T1 construct: expressed in transfected cells; host or cells: HEK-293 cells
T1 sequence (P28335 33-458): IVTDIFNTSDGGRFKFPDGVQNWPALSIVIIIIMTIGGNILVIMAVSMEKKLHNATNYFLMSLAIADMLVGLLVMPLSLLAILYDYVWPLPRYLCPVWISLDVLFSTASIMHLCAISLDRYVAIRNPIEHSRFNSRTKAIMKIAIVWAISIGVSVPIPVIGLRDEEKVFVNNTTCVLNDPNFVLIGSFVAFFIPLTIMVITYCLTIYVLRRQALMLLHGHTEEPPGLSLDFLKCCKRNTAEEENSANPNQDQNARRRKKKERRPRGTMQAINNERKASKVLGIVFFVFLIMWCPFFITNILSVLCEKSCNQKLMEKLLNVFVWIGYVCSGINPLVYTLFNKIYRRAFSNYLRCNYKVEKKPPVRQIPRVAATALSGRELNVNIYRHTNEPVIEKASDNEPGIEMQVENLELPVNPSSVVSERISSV
Protocol: (§1) Moreover, ability of the compounds of the invention to block potassium channel hERG was tested.
(§2) The specific ligand binding to the receptors is defined as the difference between the total binding and the non-specific binding determined in the presence of an excess of unlabelled ligand.
(§3) The inhibition constants (Ki) were calculated using the Cheng Prusoff equation (Ki=IC50/(1+(L/KD)), where L=concentration of radioligand in the assay, and KD=affinity of the radioligand for the receptor). A Scatchard plot is used to determine the Kd. The IC50 values (concentration causing a half-maximal inhibition of control specific binding) and Hill coefficients (nH) were determined by non-linear regression analysis of the competition curves generated with mean replicate values using Hill equation curve fitting (Y=D+[(A−D)/(1+(C/C50)^nH)], where Y=specific binding, D=minimum specific binding, A=maximum specific binding, C=compound concentration, C50=IC50, and nH=slope factor).

[2] = target: T2, α2C adrenergic receptors, human recombinant (CHO cells) (Homo sapiens, UniProt P18825); test: Binding assay, α2C adrenergic receptor ([3H]RX 821002); conditions: for α2C [%] affinity test result: compound 1×10^−6 M; for Ki: read-out: Inhibition constant Ki α2C
T2 construct: expressed in transfected cells; host or cells: CHO cells
T2 sequence (P18825 1-462): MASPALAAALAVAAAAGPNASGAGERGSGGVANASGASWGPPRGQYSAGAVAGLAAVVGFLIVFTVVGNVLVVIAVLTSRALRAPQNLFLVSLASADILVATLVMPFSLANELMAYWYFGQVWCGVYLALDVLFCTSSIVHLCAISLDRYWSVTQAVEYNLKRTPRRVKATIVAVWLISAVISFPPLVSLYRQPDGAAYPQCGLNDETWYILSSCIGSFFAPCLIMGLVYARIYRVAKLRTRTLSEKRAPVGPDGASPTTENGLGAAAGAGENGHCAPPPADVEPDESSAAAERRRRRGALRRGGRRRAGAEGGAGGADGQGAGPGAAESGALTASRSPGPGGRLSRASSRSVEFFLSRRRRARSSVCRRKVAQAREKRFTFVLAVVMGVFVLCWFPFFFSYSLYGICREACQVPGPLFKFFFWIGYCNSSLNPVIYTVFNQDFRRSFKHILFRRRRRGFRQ
Protocol: as §1, §2
as §3, with “factor). This analysis was performed using a software developed at Cerep (Hill software) and validated by comparison with data generated by the commercial software SigmaPlot® 4.0 for Windows® (©1997 by SPSS Inc.).” for “factor).”
Experimental conditions for tests are given in Table 7, and results of tests for representative compounds are given in Tables 8a and 8b (α1 receptors) and in Tables 9a and 9b (α2C receptors).

[3] = target: T3, H1 histaminergic receptors, human recombinant (HEK-293 cells) (Homo sapiens, UniProt P35367); test: Binding assay, H1 histaminergic receptor ([3H]pyrilamine); conditions: for H1 [%] affinity test result: compound 1×10^−6 M; for Ki: read-out: Inhibition constant Ki H1
T3 construct: expressed in transfected cells; host or cells: HEK-293 cells
T3 sequence (P35367 whole entry): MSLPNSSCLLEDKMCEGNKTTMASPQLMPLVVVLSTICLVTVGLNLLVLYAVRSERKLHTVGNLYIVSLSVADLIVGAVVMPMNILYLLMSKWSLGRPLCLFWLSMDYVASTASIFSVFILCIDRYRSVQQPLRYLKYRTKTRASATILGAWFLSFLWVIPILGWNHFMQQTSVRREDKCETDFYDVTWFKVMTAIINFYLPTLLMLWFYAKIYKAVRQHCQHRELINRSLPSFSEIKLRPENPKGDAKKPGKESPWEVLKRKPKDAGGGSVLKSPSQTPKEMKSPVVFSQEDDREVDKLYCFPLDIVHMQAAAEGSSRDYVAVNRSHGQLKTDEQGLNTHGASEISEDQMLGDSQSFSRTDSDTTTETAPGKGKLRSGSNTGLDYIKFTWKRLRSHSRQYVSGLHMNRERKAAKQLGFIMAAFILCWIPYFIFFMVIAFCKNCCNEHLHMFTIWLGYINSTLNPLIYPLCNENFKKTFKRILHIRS
Protocol: as §1, §2
as §3, with “factor). This analysis was performed using a software developed at Cerep (Hill software) and validated by comparison with data generated by the commercial software SigmaPlot® 4.0 for Windows® (©1997 by SPSS Inc.).” for “factor).”
Experimental conditions for tests are given in Table 14, and results of tests for representative compounds are given in Table 15a and 15b.

[4] = target: T4, D3 (h), human recombinant (CHO cells) (Homo sapiens, UniProt P35462); test: Cellular functional assay D3 (h) antagonism; assay type: cell-based; conditions: compound 1×10^−6 M; stimulus dopamine 10 nM
T4 construct: expressed in transfected cells; host or cells: CHO cells
T4 sequence (P35462 whole entry): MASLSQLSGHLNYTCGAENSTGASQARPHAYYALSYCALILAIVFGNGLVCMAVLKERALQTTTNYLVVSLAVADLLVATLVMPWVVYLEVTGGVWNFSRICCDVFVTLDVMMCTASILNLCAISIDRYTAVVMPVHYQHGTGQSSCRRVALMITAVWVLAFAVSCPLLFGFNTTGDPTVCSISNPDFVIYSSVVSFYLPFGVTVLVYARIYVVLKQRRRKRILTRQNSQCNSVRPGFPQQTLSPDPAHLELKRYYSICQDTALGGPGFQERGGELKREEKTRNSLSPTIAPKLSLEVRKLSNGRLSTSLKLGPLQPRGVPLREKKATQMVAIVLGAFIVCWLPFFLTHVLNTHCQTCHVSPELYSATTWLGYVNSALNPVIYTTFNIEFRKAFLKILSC
Protocol: (§4) The results are expressed as a percent of control specific agonist response ((measured specific response/control specific agonist response)×100) obtained in the presence of tested compound.
(§5) The EC50 values (concentration producing a half-maximal specific response) and IC50 values (concentration causing a half-maximal inhibition of the control specific agonist response) were determined by non-linear regression analysis of the concentration-response curves generated with mean replicate values using Hill equation curve fitting (Y=D+[(A−D)/(1+(C/C50)nH)], where Y=specific response, D=minimum specific response, A=maximum specific response, C=compound concentration, and C50=EC50 or IC50, and nH=slope factor).
(§6) For the antagonists, the apparent dissociation constants (Kb) were calculated using the modified Cheng Prusoff equation (Kb=IC50/(1+(A/EC50A)), where A=concentration of reference agonist in the assay, and EC50A=EC50 value of the reference agonist).

[5] = target: T5, 5-HT6 (h), human recombinant (CHO cells) (Homo sapiens, UniProt P50406); test: Cellular functional assay 5-HT6 (h) antagonism; assay type: cell-based; conditions: compound 1×10^−6 M, stimulus serotonin 100 nM, read-out: 5-HT6-antag [%]
T5 construct: expressed in transfected cells; host or cells: CHO cells
T5 sequence (P50406 whole entry): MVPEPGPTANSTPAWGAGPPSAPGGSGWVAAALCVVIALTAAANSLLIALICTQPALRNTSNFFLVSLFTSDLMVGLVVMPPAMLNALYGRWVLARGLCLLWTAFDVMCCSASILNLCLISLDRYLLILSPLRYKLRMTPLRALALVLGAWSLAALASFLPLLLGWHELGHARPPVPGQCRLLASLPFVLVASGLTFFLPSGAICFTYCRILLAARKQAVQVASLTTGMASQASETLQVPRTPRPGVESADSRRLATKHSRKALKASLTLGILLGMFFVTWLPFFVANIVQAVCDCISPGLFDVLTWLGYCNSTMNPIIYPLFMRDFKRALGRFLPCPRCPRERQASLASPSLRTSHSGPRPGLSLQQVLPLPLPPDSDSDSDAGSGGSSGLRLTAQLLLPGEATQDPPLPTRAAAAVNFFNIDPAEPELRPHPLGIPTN
Protocol: as §4, §5, §6

[6] = target: T6, 5-HT1A receptor (rat hippocampus) (Rattus norvegicus, UniProt P19327); test: Binding assay, 5-HT1A receptor ([3H]8-OH-DPAT); conditions: read-out: Inhibition constant Ki 5-HT1A
T6 construct: hippocampus; from tissue; host or cells: rat hippocampus
T6 sequence (P19327 1-422): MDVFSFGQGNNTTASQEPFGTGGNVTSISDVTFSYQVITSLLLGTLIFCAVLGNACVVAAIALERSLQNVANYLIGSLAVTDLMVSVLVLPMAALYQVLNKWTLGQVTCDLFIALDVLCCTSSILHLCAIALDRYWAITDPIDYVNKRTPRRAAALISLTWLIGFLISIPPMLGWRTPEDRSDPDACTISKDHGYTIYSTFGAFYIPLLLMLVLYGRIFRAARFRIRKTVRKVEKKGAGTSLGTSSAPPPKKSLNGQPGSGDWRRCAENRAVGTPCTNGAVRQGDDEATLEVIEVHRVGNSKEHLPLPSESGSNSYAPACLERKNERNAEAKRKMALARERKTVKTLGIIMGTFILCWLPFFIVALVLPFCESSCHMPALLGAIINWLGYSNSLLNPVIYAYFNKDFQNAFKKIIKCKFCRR
Protocol: as §1, §2, §3

O=C1CCc2ccc(OCCCN3CCN(c4cccc5c4ccn5Cc4ccccc4)CC3)cc2N1 [Compound 4, 7-[3-[4-(1-Benzylindol-4-yl)piperazin-1-yl]propoxy]-3,4-dihydro-1H-quinolin-2-one]
5-HT2C [%] binding assay result [1]: 73% | α2C [%] affinity test result [2]: 93% | H1 [%] affinity test result [3]: 73% | D3-antag [%] [4]: 29% | inhibition at 1 µM [5]: 73%

O=C1CCc2ccc(OCCCCN3CCN(c4cccc5c4ccn5Cc4ccccc4)CC3)cc2N1 [Compound 5, 7-(4-(4-(1-Benzyl-1H-indol-4-yl)piperazin-1-yl)butoxy)-3,4-dihydroquinolin-2(1H)-one]
5-HT2C [%] binding assay result [1]: 86% | α2C [%] affinity test result [2]: 93% | H1 [%] affinity test result [3]: 88% | D3-antag [%] [4]: 43% | inhibition at 1 µM [5]: 42%

O=C1CCc2ccc(OCCCN3CCN(c4cccc5c4ccn5S(=O)(=O)c4ccccc4)CC3)cc2N1 [Compound 23, 7-[3-[4-[1-(Benzensulphonyl)indol-4-yl]piperazin-1-yl]propoxy]-3,4-dihydro-1H-quinolin-2-one]
Ki [6]: 6.2 nM | 5-HT2C [%] binding assay result [1]: 0% | α2C [%] affinity test result [2]: 32% | Ki [2]: 440 nM | H1 [%] affinity test result [3]: 72% | Ki [3]: 150 nM | D3-antag [%] [4]: −19% | inhibition at 1 µM [5]: 42%

O=C1CCc2ccc(OCCCCN3CCN(c4cccc5c4ccn5S(=O)(=O)c4ccccc4)CC3)cc2N1 [Compound 24, 7-(4-(4-(1-(Phenylsulphonyl)-1H-indol-4-yl)piperazin-1-yl)butoxy)-3,4-dihydroquinolin-2(1H)-one]
Ki [6]: 1.2 nM | 5-HT2C [%] binding assay result [1]: 48% | Ki ([1]; read-out: Inhibition constant Ki 5-HT2C): 610 nM | α2C [%] affinity test result [2]: 78% | Ki [2]: 150 nM | H1 [%] affinity test result [3]: 78% | Ki [3]: 100 nM | D3-antag [%] [4]: 63.2% | inhibition at 1 µM [5]: 88.7%

O=C1CCc2ccc(OCCCCN3CCN(c4cccc5c4ccn5Cc4cccc(F)c4)CC3)cc2N1 [Compound 63, 7-[4-[4-[1-[(3-Fluorophenyl)methyl]indol-4-yl]piperazin-1-yl]butoxy]-3,4-dihydro-1H-quinolin-2-one]
5-HT2C [%] binding assay result [1]: 89% | α2C [%] affinity test result [2]: 100% | H1 [%] affinity test result [3]: 81% | D3-antag [%] [4]: 72% | inhibition at 1 µM [5]: 61%

O=C1CCc2ccc(OCCCCN3CCN(c4cccc5c4ccn5Cc4cccc(Cl)c4)CC3)cc2N1 [Compound 67, 7-[4-[4-[1-[(3-Chlorophenyl)methyl]indol-4-yl]piperazin-1-yl]butoxy]-3,4-dihydro-1H-quinolin-2-one]
Ki [6]: 7 nM | 5-HT2C [%] binding assay result [1]: 76% | α2C [%] affinity test result [2]: 97% | D3-antag [%] [4]: 74% | inhibition at 1 µM [5]: 53%

NC(=O)c1ccccc1OCCCN1CCN(c2cccc3c2ccn3S(=O)(=O)c2ccccc2)CC1 [Compound 72, 2-[3-[4-[1-(Benzenesulfonyl)indol-4-yl]piperazin-1-yl]propoxy]-benzamide]
Ki [6]: 3.9 nM | 5-HT2C [%] binding assay result [1]: 35% | α2C [%] affinity test result [2]: 74% | H1 [%] affinity test result [3]: 80% | D3-antag [%] [4]: 74% | inhibition at 1 µM [5]: 103%
